# Patent publication US20180319865A1, “Identification of Novel Small Molecule Beta2 Integrin Agonists” (Rush University Medical Center, priority 2016, published 2018)
# pEC50: −log10 of the molar value.
# Key:
# [1] = target: T1, integrin CD11c/CD18 (Homo sapiens, UniProt P20702); assay: HTS cell adhesion assay, K562 CD11c/CD18 cells on immobilized fibrinogen; type: cell-based; details: for EC50 CD11c/CD18: Table 3, K562 CD11c/CD18 cells, adhesion to fibrinogen, dose-response
# T1 construct: expressed in transfected cells; host or cells: K562 (ATCC)
# T1 sequence (P20702 with tags, fused parts or gaps): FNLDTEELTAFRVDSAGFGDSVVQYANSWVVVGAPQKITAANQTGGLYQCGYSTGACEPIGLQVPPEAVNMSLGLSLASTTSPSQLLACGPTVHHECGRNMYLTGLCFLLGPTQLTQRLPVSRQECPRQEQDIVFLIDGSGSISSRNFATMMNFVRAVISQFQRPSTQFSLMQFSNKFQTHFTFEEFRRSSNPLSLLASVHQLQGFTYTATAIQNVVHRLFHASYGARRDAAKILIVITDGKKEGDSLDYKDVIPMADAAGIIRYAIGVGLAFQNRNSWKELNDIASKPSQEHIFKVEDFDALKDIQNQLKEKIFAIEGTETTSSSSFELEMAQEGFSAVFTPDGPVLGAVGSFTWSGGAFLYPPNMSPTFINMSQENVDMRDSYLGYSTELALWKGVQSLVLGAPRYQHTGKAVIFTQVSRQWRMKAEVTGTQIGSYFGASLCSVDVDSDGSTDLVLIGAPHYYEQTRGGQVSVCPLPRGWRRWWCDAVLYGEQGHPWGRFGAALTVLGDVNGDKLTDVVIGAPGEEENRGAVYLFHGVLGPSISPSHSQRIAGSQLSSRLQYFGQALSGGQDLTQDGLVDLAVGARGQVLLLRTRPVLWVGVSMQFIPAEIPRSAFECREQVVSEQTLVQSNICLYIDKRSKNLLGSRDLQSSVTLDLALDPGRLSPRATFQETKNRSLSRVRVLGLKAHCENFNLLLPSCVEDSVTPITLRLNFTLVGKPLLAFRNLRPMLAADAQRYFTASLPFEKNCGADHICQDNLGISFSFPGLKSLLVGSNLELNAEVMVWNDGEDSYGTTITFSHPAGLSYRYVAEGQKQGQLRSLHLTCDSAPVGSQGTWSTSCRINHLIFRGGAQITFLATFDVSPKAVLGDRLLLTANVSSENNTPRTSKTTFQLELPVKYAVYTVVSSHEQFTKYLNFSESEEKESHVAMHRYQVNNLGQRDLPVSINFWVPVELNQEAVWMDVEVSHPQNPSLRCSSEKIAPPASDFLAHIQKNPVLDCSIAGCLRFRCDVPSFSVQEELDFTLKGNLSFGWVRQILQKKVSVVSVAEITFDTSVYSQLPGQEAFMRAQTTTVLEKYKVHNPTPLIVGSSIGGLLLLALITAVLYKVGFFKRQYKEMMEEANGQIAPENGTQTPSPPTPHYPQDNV
# T1 sequence (P05107 23-769 partner): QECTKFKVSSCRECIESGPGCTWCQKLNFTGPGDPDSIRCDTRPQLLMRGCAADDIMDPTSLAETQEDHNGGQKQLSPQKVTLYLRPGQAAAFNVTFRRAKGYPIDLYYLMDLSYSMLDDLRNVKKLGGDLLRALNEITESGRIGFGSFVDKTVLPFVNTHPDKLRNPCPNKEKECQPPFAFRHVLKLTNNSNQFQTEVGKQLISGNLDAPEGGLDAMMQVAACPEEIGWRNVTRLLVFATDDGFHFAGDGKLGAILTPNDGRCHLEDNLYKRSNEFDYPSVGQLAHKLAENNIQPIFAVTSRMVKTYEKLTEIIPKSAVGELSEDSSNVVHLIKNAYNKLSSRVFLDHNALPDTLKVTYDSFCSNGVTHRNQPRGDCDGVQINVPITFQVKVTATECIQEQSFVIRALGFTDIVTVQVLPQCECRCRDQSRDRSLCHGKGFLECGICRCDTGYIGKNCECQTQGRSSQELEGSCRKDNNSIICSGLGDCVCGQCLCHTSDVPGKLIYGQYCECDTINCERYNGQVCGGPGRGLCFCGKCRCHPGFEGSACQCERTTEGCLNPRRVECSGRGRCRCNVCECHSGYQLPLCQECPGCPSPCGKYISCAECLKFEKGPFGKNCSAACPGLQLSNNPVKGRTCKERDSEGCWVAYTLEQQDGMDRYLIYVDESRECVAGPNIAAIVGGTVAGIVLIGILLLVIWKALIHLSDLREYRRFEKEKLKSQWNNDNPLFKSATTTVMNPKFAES
# Experimental: K562 cells stably expressing CD11c/CD18 (K562 CD11c/CD18) were generated similarly. Mutant CD11bE320A has been described previously. K562 cells stably transfected with mutant integrin CD11bE320A/CD18 (K562 E320A) were generated according to literature protocols. All cell lines were maintained in Iscove's Modified Dulbecco's Medium (IMDM) supplemented with 10% heat-inactivated fetal bovine serum, 50 IU/mL penicillin and streptomycin and 0.5 mg/mL G418.
# Cell adhesion assays with immobilized ligands were performed using the general protocol previously described and as illustrated in FIG. 1 [33]. Assays with all different K562 cell lines (K562, K562 CD11b/CD18, K562 CD11c/CD18 and K562 E320A) were performed in an identical fashion. Briefly, 384-well microplates (Corning 3700) were coated with 15 μg/mL fibrinogen (Fg) ligand in PBS^++ overnight at 4° C. At the same time, anti-CD18 (IB4) mAb was also coated. Subsequently, the coated wells were washed with 1% nonfat milk in TBS at room temperature for 1 hour. Next, the wells were washed 3 times with TBS, and the coated microplates were used in the HTS assays.
# K562 CD11b/CD18, K562 CD11bE320A/CD18 and K562 CD11c/CD18 cells were washed with TBS, and cells were transferred to the Fg-coated wells of microplates in the assay buffer (Ca^2+ and Mg^2+ for physiological condition, Mn^2+ as the Positive control). A 1 μL aliquot of the compounds were transferred to each washed well with multichannel pipet from the 384-well plates.
# The assay plates were incubated at 37° C. in the presence of small-molecule compounds for 30 min. To dislodge the non-adherent cell, the assay plates were gently inverted and kept in inverted position for 20 min at room temperature.
# The cells were fixed with 37% formaldehyde in a small volume and the plates were kept inverted for 1 h. Upon the fixation, the solutions in the well were discarded. Next, the cells were fluorescently labeled with DAPI (0.5 μM final in TBS with 0.1% Triton X-100) and the quantitated with “Opera High Content Screening System” (Perkin Elmer).
# Cell-adhesion under positive and negative control conditions was used to define the activity scale; signal corresponding to the number of non-small molecule treated cells adherent in activating buffer condition (in the presence of Mn^2+ ions as agonist, PC) was considered maximum (100% binding) and the signal corresponding to the number of non-small molecule treated cells adherent in basal buffer condition (in the presence of 1 mM each of Ca^2+ and Mg^2+, NC) was considered minimum (0% binding). […]
# The compounds were diluted in DMSO by the final concentration 10 μM, 5 μM, 2.5 μM, 1.25 μM and 0.625 μM and stocked as sealed in 384-well plates at −80° C.
# [2] = target: T2, mutant integrin CD11bE320A/CD18 (Homo sapiens, UniProt P11215, E336A); assay: HTS cell adhesion assay, K562 E320A cells on immobilized fibrinogen; type: cell-based; details: five point dose-response
# T2 construct: expressed in transfected cells; host or cells: K562 (ATCC)
# T2 sequence (P11215 17-1152 E336A): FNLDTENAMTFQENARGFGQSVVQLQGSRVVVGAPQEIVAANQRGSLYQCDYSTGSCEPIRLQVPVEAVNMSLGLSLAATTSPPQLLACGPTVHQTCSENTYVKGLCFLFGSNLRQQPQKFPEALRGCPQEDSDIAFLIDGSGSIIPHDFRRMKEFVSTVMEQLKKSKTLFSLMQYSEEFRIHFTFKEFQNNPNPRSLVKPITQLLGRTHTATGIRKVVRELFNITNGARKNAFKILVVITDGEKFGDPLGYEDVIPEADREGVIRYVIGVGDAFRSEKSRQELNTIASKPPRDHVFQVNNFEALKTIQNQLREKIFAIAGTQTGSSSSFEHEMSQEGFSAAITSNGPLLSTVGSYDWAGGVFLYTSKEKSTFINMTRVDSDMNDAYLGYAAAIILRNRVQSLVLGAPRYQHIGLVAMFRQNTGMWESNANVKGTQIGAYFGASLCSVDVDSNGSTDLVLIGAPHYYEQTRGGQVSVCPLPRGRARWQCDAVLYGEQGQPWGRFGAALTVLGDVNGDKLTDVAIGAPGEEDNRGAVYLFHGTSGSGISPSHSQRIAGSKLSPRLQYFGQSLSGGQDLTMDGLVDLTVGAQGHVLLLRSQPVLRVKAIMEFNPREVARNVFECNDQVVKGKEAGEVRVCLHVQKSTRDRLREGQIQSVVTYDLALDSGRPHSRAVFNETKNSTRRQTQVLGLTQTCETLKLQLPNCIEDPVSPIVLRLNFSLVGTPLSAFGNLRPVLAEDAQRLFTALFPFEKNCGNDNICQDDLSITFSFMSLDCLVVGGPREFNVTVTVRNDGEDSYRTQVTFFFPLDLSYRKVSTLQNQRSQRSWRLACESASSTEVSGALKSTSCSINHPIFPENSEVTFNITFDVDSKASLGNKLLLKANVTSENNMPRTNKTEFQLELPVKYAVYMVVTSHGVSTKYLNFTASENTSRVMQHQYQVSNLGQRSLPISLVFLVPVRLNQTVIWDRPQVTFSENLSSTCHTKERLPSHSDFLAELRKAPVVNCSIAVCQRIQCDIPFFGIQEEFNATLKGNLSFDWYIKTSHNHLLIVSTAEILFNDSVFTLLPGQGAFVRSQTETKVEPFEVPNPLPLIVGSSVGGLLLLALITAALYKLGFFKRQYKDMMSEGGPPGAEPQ
# T2 sequence (P05107 23-769 partner): as the sequence (P05107 23-769 partner) above
# Summary of the method: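 K562 cells expressing the indicated CD11b/CD18 integrin were added to wells coated with 15 μg/mL fibrinogen and incubated with compound for 30 min at 37 °C in Ca2+/Mg2+ buffer. Non-adherent cells were removed by plate inversion. Adherent cells were fixed, stained with DAPI and counted by high-content imaging, scaled from 0% (1 mM Ca2+/Mg2+) to 100% (Mn2+ activation).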
# [3] = Table 3, adhesion to fibrinogen
Compound,pEC50 [1],"pEC50 [2, 3]",EC50 CD11c/CD18 [1],"pEC50 ([2]; Table 4, adhesion to fibrinogen)"
Cc1onc(-c2c(Cl)cccc2Cl)c1C(=O)NC(=S)Nc1sc2c(c1C(N)=O)CCC(C)C2 (centres unmarked) [Compound 3466680],5.20,5.22,,
O=C(Nc1ccc(NC(=O)c2ccc(S(=O)(=O)c3ccccc3)cc2)cc1)c1ccccc1 [Compound 1144109],5.51,5.15,,
CSc1nc(N(CCO)CCO)c2sc3nc(-c4ccco4)c4c(c3c2n1)CCC4 [Compound 665142],5.58,5.31,,
CCc1cc(=O)oc2cc(C)c3c(C)coc3c12 [Compound 707842],,4.82,Infinite,
CS(=O)(=O)c1ccc2c(c1)SC1=NC(=O)/C(=C/c3ccco3)C(=N)N12 [Compound 1951731],5.38,5.44,,
O=C(Oc1ccc2c(=O)c(Oc3ccc4ccccc4c3)coc2c1)c1cncc(Br)c1 [Compound 1045434],,5.01,Infinite,
O=C(CCN1C(=O)c2ccccc2C1=O)Nc1ccc(-c2nc3ccccc3o2)cc1 [Compound 1262031],5.14,5.80,,
COC(=O)c1ccc2c(c1)N(Cc1nc(-c3cccc(C)c3)oc1C)C(=O)C1CCCN21 (centres unmarked) [Compound 5309602],5.59,5.19,,
COC(=O)c1cc(OC)c(OC)cc1NC(=O)c1cc(-c2ccccc2)nc2ccccc12.Cl [Compound 2965657],,4.89,Infinite,
COc1cc(/C=C2\SC(N)=NC2=O)ccc1OCC(=O)Nc1ccc(C)cc1 [Compound 1308620],5.20,5.48,,
Cc1ccccc1Cn1c(=O)n(CC2CCC(C(=O)NCCc3ccccc3)CC2)c(=O)c2ccccc21 (centres unmarked) [Compound 12006068],5.61,5.17,,
N#C/C(=C\c1ccc(OCc2ccccc2)cc1)C(=O)Nc1nc2c(s1)CCN(Cc1ccccc1)C2 [Compound 2327777],,4.66,Infinite,
C/C(=N/NC(=O)c1cc2ccccc2cc1O)C1C(=O)c2ccccc2C1=O [Compound 5431927],5.70,5.63,,
CC(=O)c1ccc(NC(=O)c2ccc3nc(-c4ccco4)c(-c4ccco4)nc3c2)cc1 [Compound 1331726],5.58,5.61,,
Cc1ccc(/C=c2\sc3nc(-c4ccccc4Br)nn3c2=O)o1 [Compound 1891182],5.28,5.16,,
O=C(ONc1ccc(N=NC(=O)c2ccccc2O)cc1)c1ccccc1 [Compound 4483668],5.33,5.27,,
Cc1ccc2sc(-c3ccc(NC(=O)c4cc(-n5cnnc5)ccc4Cl)cc3)nc2c1 [Compound 1017701],5.57,5.09,,
Cc1ccc(-c2nc3ncccc3o2)cc1NC(=O)c1sc2ccccc2c1Cl [Compound 1132508],5.27,5.35,,
Cc1ccc2nc(-c3ccc(NC(=O)COC(=O)c4cncc(Br)c4)cc3)sc2c1 [Compound 2365417],5.39,5.55,,
O=C(N/N=C/c1ccc(-c2ccc(S(=O)(=O)Nc3ncccn3)cc2)o1)c1cc2ccccc2cc1O [Compound 6892904],5.62,,,5.26
Cc1c(N2C(=O)c3ccc4c5c(ccc(c35)C2=O)CC4)c(=O)n(-c2ccccc2)n1C [Compound 1356461],5.64,5.40,,
COc1cc(NC(=O)Cn2c(=O)n(-c3cccc(C)c3)c(=O)c3c(C)c(C)sc32)cc(OC)c1 [Compound 12004750],5.23,5.21,,

Compound,pEC50 [1],"pEC50 [2, 3]",EC50 CD11c/CD18 [1],"pEC50 ([2]; Table 4, adhesion to fibrinogen)"
O=C(Nc1ccc(N2CCN(c3ccc(O)cc3)CC2)cc1)Oc1ccccc1 [Compound 1317528],5.67,5.44,,
Cc1cc(OCC(=O)Nc2ccc(N3CCN(C(=O)c4ccco4)CC3)cc2)cc(C)c1Cl [Compound 1255242],5.59,5.47,,
Cc1nc(C)c(C(=O)Nc2nc3c(C)cccc3s2)o1 [Compound 3244965],5.39,5.31,,
O=C(Nc1ccc2oc(-c3ccccc3F)nc2c1)c1cncc(Br)c1 [Compound 1295289],5.57,5.44,,
O=C(Nc1ccc2nc(-c3ccco3)c(-c3ccco3)nc2c1)N1CCCCCC1 [Compound 2214811],5.60,5.33,,
C=CCOC(=O)c1cc(-c2ccc(/C=C3\C(=O)NC(=O)C(C#N)=C3C)o2)ccc1Cl [Compound 5769297],5.60,5.60,,
COc1ccc2cc3cc(C(=O)Nc4ccc5c(c4)OCCO5)oc3nc2c1 [Compound 3241193],6.16,5.89,,
C=CCn1c(SCC(=O)c2ccc(CNC(C)=O)o2)nc2scc(C3CC3)c2c1=O [Compound 2569132],5.28,5.20,,
Cc1ccc(-n2nnnc2SCC(=O)Nc2ccc3c(c2)COC3=O)cc1C [Compound 1227337],5.48,5.38,,
Cc1ccc(/C=C/C(=O)Nc2ccc([N+](=O)[O-])c(NC(=O)/C=C/c3ccc(C)o3)c2)o1 [Compound 5736971],5.35,5.18,,
O=C(Nc1nc(-c2ccco2)c(-c2ccco2)s1)C1CC(=O)N(c2ccc3c(c2)OCCO3)C1 (centres unmarked) [Compound 2998894],5.52,5.23,,
Cc1cc(C)cc(OCC(=O)Nc2ccc(N3CCCC3)cc2)c1 [Compound 960705],5.64,5.46,,
Cn1c(C(=O)NCCN2CCc3ccccc3C2)cc2c(=O)n(C)c3ccccc3c21 [Compound 5309909],,3.59,Infinite,
COC(=O)c1[nH]c2ccc(C)cc2c1NC(=O)CN1CCCc2ccccc21 [Compound 658948],6.25,6.00,,
CC(C)c1nc2sc3c(SCC(=O)NCc4ccco4)ncnc3c2c2c1CCC2 [Compound 664182],5.42,5.37,,
CCOC(=O)Cc1csc(NC(=O)c2sc3nc4c(C)cc(C)cc4cc3c2N)n1 [Compound 3207334],5.70,5.29,,
CCOC(=O)N1CCC(NC(=O)c2ccc3c(c2)sc2nc(-c4ccc(OC)cc4)cn23)CC1 [Compound 3235854],5.57,5.26,,
Cc1ccc2nc(-c3ccc(NC(=O)CCS(=O)(=O)c4ccccc4)cc3)sc2c1 [Compound 12005977],5.30,5.17,,
N=C1/C(=C\c2ccc(-c3cc(Cl)cc(Cl)c3)o2)C(=O)N=C2SC=C(c3ccccc3)N12 [Compound 1599902],5.65,5.24,,
N=C1/C(=C\c2ccc(-c3cccc(Cl)c3)o2)C(=O)N=C2SC=C(c3ccccc3)N12 [Compound 1984877],5.67,5.51,,
CCc1nnc(NC(=O)c2sc3nc4c(cc3c2N)CCCCCC4)s1 [Compound 5143923],5.52,5.27,,
